Measurements as given in PubChem BioAssay (NCI).
“And” between values parts separate entries of the source, which are not always exact repeats. Equal values may be shown once.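 How tested: cells in 96-well plates exposed to compound for 48 hours at five concentrations. GI50 marks 50% less growth. At the TGI there is no net growth.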

Key:
Assay in all cases: NCI anticancer screen, dose series, 48 h
KM20L2 colon = test system: KM20L2 colon
HT29 colon = test system: HT29 colon
HCC-2998 colon = test system: HCC-2998 colon
OVCAR-8 ovarian = test system: OVCAR-8 ovarian
MALME-3M melanoma = test system: MALME-3M melanoma
HCT-116 colon = test system: HCT-116 colon
DMS 273 small cell lung = test system: DMS 273 small cell lung
SK-OV-3 ovarian = test system: SK-OV-3 ovarian
PC-3 prostate = test system: PC-3 prostate
BT-549 breast = test system: BT-549 breast

Row | Structure (SMILES) | TGI (KM20L2 colon) [µM] | TGI (HT29 colon) | TGI (HCC-2998 colon) [µM] | TGI (OVCAR-8 ovarian) | TGI (MALME-3M melanoma) [µM] | TGI (HCT-116 colon) [µM] | TGI (DMS 273 small cell lung) [µM] | TGI (SK-OV-3 ovarian) [µM] | TGI (PC-3 prostate) [µM] | TGI (BT-549 breast) [µM] | GI50 (KM20L2 colon) [µM] | GI50 (SK-OV-3 ovarian) [µM] | GI50 (HT29 colon) [µM] | GI50 (HCC-2998 colon) [µM] | GI50 (OVCAR-8 ovarian) [µM] | GI50 (MALME-3M melanoma) [µM] | GI50 (HCT-116 colon) [µM] | GI50 (DMS 273 small cell lung) [µM]
1 | OC1CC(O)O[C@H](c2ccccc2)C1 (stereo partly specified) | > 100 | > 100 µM | > 100 | > 100 µM | > 100 | > 100 | > 100 | – | – | – | – | – | – | – | – | – | – | –
2 | CC(=O)Oc1ccc2c(=O)c(C(C)=O)coc2c1 | > 100 | > 100 µM | – | > 100 µM | – | > 100 | > 100 | – | – | – | – | – | – | – | – | – | – | –
3 | O=C(c1ccccc1)n1cc(/C=C/[N+](=O)[O-])c2ccccc21 | – | > 100 µM | – | > 100 µM | 96.7 | 32 | 55.1 | > 100 | – | – | – | – | – | – | – | – | – | –
4 | CCN(N=O)C1C2(CCCC2)NC(=O)C12CCCC2 (stereo unspecified) | > 100 | > 100 µM | > 100 | > 100 µM | > 100 | > 100 | – | > 100 | – | – | – | – | – | – | – | – | – | –
5 | C#CN1C(=O)c2c(c(-c3ccccc3)c(-c3ccc(Oc4ccc(-c5c(-c6ccccc6)c6c(c(-c7ccccc7)c5-c5ccccc5)C(=O)N(C#C)C6=O)cc4)cc3)c(-c3ccccc3)c2-c2ccccc2)C1=O | > 100 | > 100 µM | > 100 | > 100 µM | > 100 | > 100 | > 100 | – | – | – | – | – | – | – | – | – | – | –
6 | COc1ccc(OC(=O)N2C/C(=C\c3ccccc3)C(=O)/C(=C/c3ccccc3)C2)cc1 | 17 | 3.73 µM | 8.76 | 7.57 µM | 27.8 | 1.19 | 6.28 | 24.9 | 11.2 | 4.67 | – | – | – | – | – | – | – | –
7 | O=C(O)C1=Cc2cccc3cccc(c23)C1=O | > 100 | > 100 µM | > 100 | > 100 µM | > 100 | > 100 | > 100 | > 100 | – | – | – | – | – | – | – | – | – | –
8 | C[C@@H](NC1CCCC[C@@H]1O)c1ccccc1 (stereo partly specified) | > 100 | > 100 µM | > 100 | > 100 µM | > 100 | > 100 | > 100 | > 100 | – | – | – | – | – | – | – | – | – | –
9 | CC(=O)OC1C(O)C(C)OC(OC2C(OC(=O)C3CCC4C(C3)OC3(CC(OC(=O)/C=C/c5ccccc5)C(C)CO3)C43CO3)OC(C)C(O)C2OC(C)=O)C1O (stereo unspecified) | 0.21 | 0.0473 µM | 0.0148 | 0.198 µM | < 0.0185 | 0.0785 | 0.111 | 0.0928 | 0.0442 | 0.0147 | – | – | – | – | – | – | – | –
10 | CC(=O)[O-].CC(=O)[O-].O=C([CH-]C(=O)c1ccccc1)c1ccccc1.[Nd+3].[OH3+] | > 100 | 89.6 µM | > 100 | > 100 µM | 85.2 | > 100 | – | 90.5 | – | – | 30.5 | 27 | 20.9 | 25 | 15.8 | 26.1 | 19.7 | –
11 | CC(=O)OCc1nnn2c1C(OC(C)=O)CC2 (stereo unspecified) | > 100 | > 100 µM | > 100 | > 100 µM | > 100 | > 100 | > 100 | > 100 | – | – | – | – | – | – | – | – | – | –
12 | CC(C)(C)N1CC1CNC(=O)C(=O)NCC1CN1C(C)(C)C (stereo unspecified) | 5.96 | 19.1 µM | 14.8 | 14.8 µM | 8.68 | 10.8 | 0.517 | 13.4 | > 100 | > 92.6 | – | – | – | – | – | – | – | –
13 | CC(=O)OC(C(=O)[O][Ge]([CH3])([CH3])[CH3])c1ccccc1 (stereo unspecified) | > 100 | > 100 µM | > 100 | > 100 µM | > 100 | > 100 | – | > 100 | – | – | > 100 | > 100 | > 100 | > 100 | > 100 | > 100 | > 100 | –
14 | CCCCCCCCCCCCC(O)C1CCC(C(O)CCCCC(O)CCCCCC2CC(CC(C)=O)C(=O)O2)O1 (stereo unspecified) | 19.7 | 2.65 µM and 15.4 µM | 16.3 | 3.48 µM and 20.9 µM | 16.5 | 14.8 | 13 | 26 | 4.24 | 5.6 | – | – | 1.37 | – | 1.38 | – | 1.93 | –
15 | CC[O-].CC[O-].O=C1C=C([O-])C(=O)c2ccccc21.O=C1C=C([O-])C(=O)c2ccccc21.[Ti+4] | > 100 | > 100 µM | > 100 | > 100 µM | > 100 | > 100 | > 100 | > 100 | – | – | 84.7 | > 100 | 22.4 | 46.1 | > 100 | 9.89 | 43.2 | > 63.5
16 | CCOC(=O)C(C(=O)OCC)=C1C=C(c2ccccc2)c2ccccc21 | > 100 | > 100 µM | > 100 | > 100 µM | > 100 | > 100 | > 100 | > 100 | – | – | – | – | – | – | – | – | – | –
